Experimental data as given in patent US8877748B2, “Heterocyclic fused anthraquinone derivatives, manufacturing method and pharmaceutical composition using thereof” (National Defense Medical Center, priority 2012, dated 2014).

Legend:
NCI-H460 = assay: NCI one-dose screening, non-small cell lung cancer NCI-H460; type: cell-based, human; details: 10 μM
OVCAR-5 = assay: NCI one-dose screening, ovarian cancer OVCAR-5; type: cell-based, human; details: 10 μM
human tumor cell lines = assay: NCI one-dose screening, Mean / Delta / Range of growth percent over all tested cell lines; type: cell-based; details: 10 μM
BT-549 = assay: NCI one-dose screening, breast cancer BT-549; type: cell-based, human; details: 10 μM
U251 = assay: NCI one-dose screening, CNS cancer U251; type: cell-based, human; details: 10 μM
M14 = assay: NCI one-dose screening, melanoma M14; type: cell-based, human; details: 10 μM
NCl/ADR-RES = assay: NCI one-dose screening, breast cancer NCl/ADR-RES; type: cell-based, human; details: 10 μM; listed under Ovarian cancer
SNB-19 = assay: NCI one-dose screening, CNS cancer SNB-19; type: cell-based, human; details: 10 μM
MDA-MB-468 = assay: NCI one-dose screening, breast cancer MDA-MB-468; type: cell-based, human; details: 10 μM
CAKI-1 = assay: NCI one-dose screening, renal cancer CAKI-1; type: cell-based, human; details: 10 μM
OVCAR-3 = assay: NCI one-dose screening, ovarian cancer OVCAR-3; type: cell-based, human; details: 10 μM
NCI-H23 = assay: NCI one-dose screening, non-small cell lung cancer NCI-H23; type: cell-based, human; details: 10 μM
HOP-92 = assay: NCI one-dose screening, non-small cell lung cancer HOP-92; type: cell-based, human; details: 10 μM
786-O = assay: NCI one-dose screening, renal cancer 786-O; type: cell-based, human; details: 10 μM
T-47D = assay: NCI one-dose screening, breast cancer T-47D; type: cell-based, human; details: 10 μM
SF-295 = assay: NCI one-dose screening, CNS cancer SF-295; type: cell-based, human; details: 10 μM
MALME-3M = assay: NCI one-dose screening, melanoma MALME-3M; type: cell-based, human; details: 10 μM
NCI-H522 = assay: NCI one-dose screening, non-small cell lung cancer NCI-H522; type: cell-based, human; details: 10 μM
EKVX = assay: NCI one-dose screening, non-small cell lung cancer EKVX; type: cell-based, human; details: 10 μM
OVCAR-8 = assay: NCI one-dose screening, ovarian cancer OVCAR-8; type: cell-based, human; details: 10 μM
DU145 = assay: NCI one-dose screening, prostate cancer DU145; type: cell-based, human; details: 10 μM
SK-MEL-2 = assay: NCI one-dose screening, melanoma SK-MEL-2; type: cell-based, human; details: 10 μM
SN12C = assay: NCI one-dose screening, renal cancer SN12C; type: cell-based, human; details: 10 μM
COLO 205 = assay: NCI one-dose screening, colon cancer COLO 205; type: cell-based, human; details: 10 μM
SF-539 = assay: NCI one-dose screening, CNS cancer SF-539; type: cell-based, human; details: 10 μM
KM12 = assay: NCI one-dose screening, colon cancer KM12; type: cell-based, human; details: 10 μM
HCT-15 = assay: NCI one-dose screening, colon cancer HCT-15; type: cell-based, human; details: 10 μM
PC-3 = assay: NCI one-dose screening, prostate cancer PC-3; type: cell-based, human; details: 10 μM
A549/ATCC = assay: NCI one-dose screening, non-small cell lung cancer A549/ATCC; type: cell-based, human; details: 10 μM
SK-OV-3 = assay: NCI one-dose screening, ovarian cancer SK-OV-3; type: cell-based, human; details: 10 μM
UO-31 = assay: NCI one-dose screening, renal cancer UO-31; type: cell-based, human; details: 10 μM
IGROV1 = assay: NCI one-dose screening, ovarian cancer IGROV1; type: cell-based, human; details: 10 μM
UACC-257 = assay: NCI one-dose screening, melanoma UACC-257; type: cell-based, human; details: 10 μM
MOLT-4 = assay: NCI one-dose screening, leukemia MOLT-4; type: cell-based, human; details: 10 μM
NCI-H226 = assay: NCI one-dose screening, non-small cell lung cancer NCI-H226; type: cell-based, human; details: 10 μM
ACHN = assay: NCI one-dose screening, renal cancer ACHN; type: cell-based, human; details: 10 μM
SK-MEL-5 = assay: NCI one-dose screening, melanoma SK-MEL-5; type: cell-based, human; details: 10 μM
MCF7 = assay: NCI one-dose screening, breast cancer MCF7; type: cell-based, human; details: 10 μM
UACC-62 = assay: NCI one-dose screening, melanoma UACC-62; type: cell-based, human; details: 10 μM
LOX IMVI = assay: NCI one-dose screening, melanoma LOX IMVI; type: cell-based, human; details: 10 μM
MDA, -MB-435 = assay: NCI one-dose screening, breast cancer MDA, -MB-435; type: cell-based, human; details: 10 μM; listed under Melanoma
SR = assay: NCI one-dose screening, leukemia SR; type: cell-based, human; details: 10 μM
HS 578-T = assay: NCI one-dose screening, breast cancer HS 578-T; type: cell-based, human; details: 10 μM; Breast cancer
[1] = test system: PC-3 prostate cancer cell line; assay: SRB assay cell viability, PC-3 prostate cancer cell line; type: cell-based, human; details: Homo sapiens, PC-3 prostate cancer cell line, Table II prints no unit, μM printed, read-out: SRB assay: 50% inhibition of cancer cell proliferation of sample concentration (IC50) of PC-3 prostate cancer cell line
MDA-MB-231/ATCC = assay: NCI one-dose screening, breast cancer MDA-MB-231/ATCC; type: cell-based, human; details: 10 μM
HCT-116 = assay: NCI one-dose screening, colon cancer HCT-116; type: cell-based, human; details: 10 μM
[2] = NCI one-dose screening, renal cancer A489; type: cell-based, human; details: 10 μM
HL-60, TB = assay: NCI one-dose screening, leukemia HL-60, TB; type: cell-based, human; details: 10 μM
K562cell line = assay: NCI one-dose screening, leukemia K562; type: cell-based, human; details: 10 μM
SF-268 = assay: NCI one-dose screening, CNS cancer SF-268; type: cell-based, human; details: 10 μM
HOP-62 = assay: NCI one-dose screening, non-small cell lung cancer HOP-62; type: cell-based, human; details: 10 μM
PRMI-8226 cell line = assay: NCI one-dose screening, leukemia PRMI-8226; type: cell-based, human; details: 10 μM
HCC-2998 = assay: NCI one-dose screening, colon cancer HCC-2998; type: cell-based, human; details: 10 μM
SNB-75 = assay: NCI one-dose screening, CNS cancer SNB-75; type: cell-based, human; details: 10 μM
SK-MEL-28 = assay: NCI one-dose screening, melanoma SK-MEL-28; type: cell-based, human; details: 10 μM
RXF, 393 = assay: NCI one-dose screening, renal cancer RXF, 393; type: cell-based, human; details: 10 μM
HT29 = assay: NCI one-dose screening, colon cancer HT29; type: cell-based, human; details: 10 μM
TK-10 = assay: NCI one-dose screening, renal cancer TK-10; type: cell-based, human; details: 10 μM

SMILES: CSc1ccc(Sc2cc3c(c4nsnc24)C(=O)c2ccccc2C3=O)cc1 [C43, 4-(4-(methylthio)phenylthio)anthra[2,1-c] [1,2,5]thiadiazol-6,11-dione]
- Growth Percent NCI-H460 (NCI-H460): 106.20%
- Growth Percent OVCAR-5 (OVCAR-5): 108.31%
- Growth Percent Delta (human tumor cell lines; delta over all cell lines): 40.76%
- Growth Percent Mean (human tumor cell lines; mean over all cell lines): 96.80%
- Growth Percent Range (human tumor cell lines; range over all cell lines): 72.06%
- Growth Percent BT-549 (BT-549): 107.82%
- Growth Percent U251 (U251): 103.89%
- Growth Percent M14 (M14): 107.55%
- Growth Percent NCI/ADR-RES (NCl/ADR-RES): 91.79%
- Growth Percent SNB-19 (SNB-19): 101.61%
- Growth Percent MDA-MB-468 (MDA-MB-468): 82.25%
- Growth Percent CAKI-1 (CAKI-1): 99.44%
- Growth Percent OVCAR-3 (OVCAR-3): 102.89%
- Growth Percent NCI-H23 (NCI-H23): 81.49%
- Growth Percent HOP-92 (HOP-92): 04.31%
- Growth Percent 786-0 (786-O): 109.83%
- Growth Percent T-47D (T-47D): 86.56%
- Growth Percent SF-295 (SF-295): 98.897%
- Growth Percent MALME-3M (MALME-3M): 104.58%
- Growth Percent NCI-H522 (NCI-H522): 95.39%
- Growth Percent EKVX (EKVX): 113.82%
- Growth Percent OVCAR-8 (OVCAR-8): 97.37%
- Growth Percent DU145 (DU145): 101.05%
- Growth Percent SK-MEL-2 (SK-MEL-2): 89.27%
- Growth Percent SN12C (SN12C): 98.04%
- Growth Percent COLO 205 (COLO 205): 117.30%
- Growth Percent SF-539 (SF-539): 96.48%
- Growth Percent KM12 (KM12): 100.42%
- Growth Percent HCT-15 (HCT-15): 111.56%
- Growth Percent PC-3 (PC-3): 78.37%
- Growth Percent A549/ATCC (A549/ATCC): 104.69%
- Growth Percent SK-OV-3 (SK-OV-3): 102.46%
- Growth Percent UO-31 (UO-31): 67.56%
- Growth Percent IGROV1 (IGROV1): 95.67%
- Growth Percent UACC-257 (UACC-257): 109.51%
- Growth Percent MOLT-4 (MOLT-4): 59.93%
- Growth Percent NCI-H226 (NCI-H226): 79.69%
- Growth Percent ACHN (ACHN): 103.64%
- Growth Percent SK-MEL-5 (SK-MEL-5): 101.45%
- Growth Percent MCF7 (MCF7): 82.87%
- Growth Percent UACC-62 (UACC-62): 110.99%
- Growth Percent LOX IMVI (LOX IMVI): 68.98%
- Growth Percent MDA-MB-435 (MDA, -MB-435): 118.40%
- Growth Percent SR (SR): 96.31%
- Growth Percent HS 578T (HS 578-T): 96.47%
- IC50 [1]: > 15 µM
- Growth Percent MDA-MB-231/ATCC (MDA-MB-231/ATCC): 78.80%
- Growth Percent HCT-116 (HCT-116): 101.97%
- Growth Percent A498 [2]: 56.04%
- Growth Percent HL-60(TB) (HL-60, TB): 105.25%
- Growth Percent K562 (K562cell line): 67.50%
- Growth Percent SF-268 (SF-268): 89.67%
- Growth Percent HOP-62 (HOP-62): 102.09%
- Growth Percent RPMI-8226 (PRMI-8226 cell line): 88.58%
- Growth Percent HCC-2998 (HCC-2998): 111.01%
- Growth Percent SNB-75 (SNB-75): 75.08%
- Growth Percent SK-MEL-28 (SK-MEL-28): 119.66%
- Growth Percent RXF 393 (RXF, 393): 106.98%
- Growth Percent HT29 (HT29): 102.26%
- Growth Percent TK-10 (TK-10): 128.10%
